Results taken from patent US20210340502A1, “Generation of Post-Mitotic Migratory Cortical Interneurons” (The McLean Hospital Corporation, priority 2018, published 2021).
Entries after “also recorded” stand apart in the source; their conditions may differ.

Legend:
MGE progenitors = assay: KI67+ proliferating MGE progenitors after chemical treatment (immunocytochemistry and cell counting); assay type: cell-based; conditions: for proportion of proliferating MGE progenitors (in words): 3 week-old MGE progenitors treated for a week; for Percentage of proliferating cells (Average ± SEM, N): KI67+ cells, 3 week-old MGE progenitors treated 1 week, 20 μM FdU, 1% CultureOne, 10 mM DAPT, 2 μM PD0332991 or combination (CDP)
Procedure: For chemical treatment of cINs, the differentiated progenitors were seeded on PLO/FN-coated surface at 3 weeks after differentiation, and cultured in B27GB media without or with each chemical, 20 μM FdU (Sigma-Aldrich, Natick, Mass., USA), 1% CultureOne (C, Thermo Fisher, Waltham, Mass., USA), […] (D, Sigma-Aldrich, Natick, Mass., USA), and 2 μM PD0332991 (P, Sigma-Aldrich, Natick, Mass., US), or with combination of CultureOne, DAPT and PD0332991 (CDP) for the time period designated in each Figure.
Immunocytochemistry and cell counting. cINs on coverslips were fixed using 4% paraformaldehyde (PFA, Electron Microscopy Sciences, Hatfield, Pa.) for 15 min, washed with PBS and used for staining. The spheres at different differentiation stages were fixed by 4% PFA for 15 min, rinsed with PBS, cryo-protected in the 30% sucrose (Thermo Fisher, Waltham, Mass., USA) overnight at 4° C., mounted on the chuck using the O.C.T. Compound (Thermo Fisher, Waltham, Mass., USA) and cryosectioned at 40 μm using a Leica CM1850 cryostat (Leica Biosystem, Buffalo Grove, Ill., USA). Fixed cells or sphere sections were incubated with blocking/permeablization buffer (PBS with 10% normal serum and 0.1% Triton X-100) for 10 min. The samples were then incubated in primary antibodies in antibody dilution buffer (PBS containing 2% normal serum) overnight at 4° C. After washing with PBS, cells were incubated with fluorescently labeled secondary antibodies and DAPI (Invitrogen, Waltham, Mass., USA)) in antibody dilution buffer for 1 h at room temperature. Following the PBS wash, the samples were mounted with Fluoromount-G (SouthernBiotech, Birmingham, Ala., USA).
For cell counting, multi point function in Image J software (Version 1.51 p, NIH, Bethesda, Md., USA) was used. Percentage of positive cells for each marker was calculated by dividing by DAPI-stained total nuclei number from at least 3 separate biological replicates. For each staining, a total of at least 500 cells were counted for each group.

cIN organoids = assay: Passaging of cIN organoids with Trehalose; assay type: cell-based, human
Procedure: For passaging cINs, cells were trypsinized by 0.05% trypsin (Thermo Fisher, Waltham, Mass., USA) supplemented with or without 10 mM Trehalose (Sigma-Aldrich, Natick, Mass., USA). After 5 minutes' incubation at 37° C., the spheres were triturated to dissociate the spheres. An equal volume of DMEM media with 10% FBS (Hyclone, Marlborough, Mass., USA) was added to neutralize Trypsin. In addition, Turbo DNase (2 U/ml, Thermo Fisher, Waltham, Mass., USA) was added to help clear released DNAs from culture. The cells were then kept in the incubator for additional 15 min to remove any sticky DNA mass released during trituration. After incubation, the cells were centrifuged and resuspended by B27GB media with ROCK inhibitor. To exclude the dead cell cluster, the resuspended cells were filtered through a cell strainer cap (35 μm nylon mesh, Corning, N.Y., USA), and plated onto a PLO/FN-coated surface (Poly-L-Ornithine, 15 ug/ml, Sigma-Aldrich, Natick; Fibronectin, 10 ug/ml, Thermo Fisher, Waltham, Mass., USA) for the subsequent experiments.

H9 cINs = assay: Cryopreservation of cINs with Trehalose in freezing media; assay type: cell-based, human
Procedure: For cryopreservation, the trypsinized cells were resuspended in freezing media (FBS with 10% DMSO) with or without 100 mM Trehalose and were frozen slowly overnight in an insulated container at −80° C. deep freezer. After 24 hours, the stocks were moved to liquid nitrogen storage until further experiments. Frozen stocks were thawed quickly in a 37° C. water bath, transferred to 15 ml conical tubes with 5 ml media, centrifuged and resuspended in B27GB media with ROCK inhibitor for plating and further experiments.

Row | SMILES | proportion of proliferating MGE progenitors (in words) (MGE progenitors) | Percentage of proliferating cells (Average ± SEM, N) (MGE progenitors) | survival rate during passaging (cIN organoids; 6 weeks after differentiation, 10 mM Trehalose in trypsin) | increase in survival rate during passaging (cIN organoids; older organoids, after six months' differentiation) | survival of cryopreserved cINs after freeze-thaw (H9 cINs; 100 mM Trehalose in freezing media) | cIN phenotypes after freeze-thaw (H9 cINs; SOX6, GAD, β-TUBLIN three weeks after thawing) | viability during cryopreservation (H9 cINs; optimized condition, compared to the cINs passaged without cryopreservation)
1 | C[C@H](NC(=O)Cc1cc(F)cc(F)c1)C(=O)N[C@H](C(=O)OC(C)(C)C)c1ccccc1 [DAPT] | significantly reduced the proportion of proliferating progenitors; also recorded: worked well to control cell cycle exit of MGE cells | 8.835 ± 1.618, 4% |  |  |  |  | 
2 | O=c1[nH]c(=O)n([C@H]2C[C@H](O)[C@@H](CO)O2)cc1F [FdU, 5-fluoro-2′-deoxyuridine] | did not influence the proportion of proliferating MGE progenitors; also recorded: not effective in reducing immature proliferating cell numbers | 31.719 ± 1.486, 4% |  |  |  |  | 
3 | CC(=O)c1c(C)c2cnc(Nc3ccc(N4CCNCC4)cn3)nc2n(C2CCCC2)c1=O [PD0332991] | significantly reduced the proportion of proliferating progenitors; also recorded: effective in regulating MGE cell cycle exit | 5.160 ± 1.042, 4% |  |  |  |  | 
4 | OC[C@H]1O[C@H](O[C@H]2O[C@H](CO)[C@@H](O)[C@H](O)[C@H]2O)[C@H](O)[C@@H](O)[C@@H]1O [Trehalose] |  |  | significantly increased the survival rate | much more pronounced | significantly increased survival | without affecting their phenotypes | 65.27±8.97%
